# Laboratory results taken from patent US7294715B2, “Aporphine and oxoaporphine compounds and pharmaceutical use thereof” (Lotus Pharmaceutical Co., Ltd., priority 2003, dated 2007).
# Assays:
# [1] = test system: eNOS; assay: Western blot analysis for eNOS protein in ischemia-reperfusion rat heart; type: in vivo; conditions: ischemia 25 min, reperfusion 2 h, 1.5 mg/kg at 5 min prior to reperfusion, P<0.05 vs vehicle
# Experimental: To elucidate the effects of the test compounds on the infarct size caused by regional myocardial ischemia and reperfusion, all animals were randomized into 8 study groups. The first group (Sham) comprised of animals not subjected to regional myocardial ischemia (25 min) followed by reperfusion (2 h) and treated with vehicle (1 ml/kg) 5 minutes prior to the onset of reperfusion. The second group of animals were subjected to regional myocardial ischemia (25 min) followed by reperfusion (2 h) and were treated with vehicle (saline, 1 ml/kg). […]
# Hearts were pulverized at −80° C. using liquid nitrogen and a stainless steel pestle and mortar. […] Total protein concentrations were determined using the Bradford method (Bio-Rad, UK). […] Signals were detected using the enhanced chemiluminescence (ECL™) detection system (Cell Signaling Technology, U.S.A.) and autoradiographic film. For quantification of protein expression all blots were reprobed for muscle α-actin expression using 1/2000 dilution of a mouse anti-human actin (muscle antibody (Serotec), followed by incubation with a goat anti-mouse HRP linked secondary antibody ( 1/2000 dilution) (DakoCytomation, Denmark). Densitometry analysis was performed on scanned images (Hewlett Packard Scanjet) and analyzed using Scion Image (Scion Corp, National Institutes of Health, Bethesda, Md.).
# [2] = test system: ischemia-reperfusion rabbit; assay: Ischemia-reperfusion rabbit mortality; type: in vivo
# [3] = Safety at multiples of the effective dose in rabbits; conditions: 10-100 times the effective dose
# [4] = test system: regional myocardial ischemia and reperfusion (LAD occlusion); assay: Infarct size in a rat model of regional myocardial ischemia and reperfusion; type: in vivo; conditions: iv
# Experimental: Seventy two male Wistar rats (215-300 g, Charles River, Margate, U.K.) were anaesthetized with thiopentone sodium (Intraval®, 120 mg/kg i.p.; Rhone-Merrieux, Essex, U.K.). The rats were tracheotomised and ventilated with a Harvard ventilator (70 strokes/min, tidal volume: 8-10 ml/kg, inspiratory oxygen concentration: 30%). Body temperature was maintained at 38±1° C. The right carotid artery was cannulated and connected to a pressure transducer (MLT 844, AD Instruments Ltd, Hastings, UK) to monitor mean arterial blood pressure and heart rate, which were continuously recorded on a data acquisition system (Powerlab® Version 4.0.4, AD Instruments, Hastings, UK) installed on a Dell Dimension 4100 personal computer, throughout the experiment. The right jugular vein was cannulated for the administration of test compound and Evans Blue dye (at the end of the experiment). A parasternal thoracotomy was performed, the heart was suspended in a temporary pericardial cradle and a snare occluder was placed around the left anterior descending coronary artery (LAD). After completion of the surgical procedure the animals were allowed to stabilize for 30 min before LAD ligation. The coronary artery was occluded at time 0 by tightening of the occluder. After 25 min of acute myocardial ischemia, the occluder was released to allow reperfusion for 2 h.
# The test compounds were administered as a slow intravenous injection (i.v.) 5 min prior to the onset of reperfusion of the ischemic heart. Following the 2 h reperfusion period, the coronary artery was re-occluded and Evans Blue dye (1 ml of 2% w/v) was injected into the left ventricle, via the right jugular vein cannula, to distinguish between perfused and non-perfused (AAR) sections of the heart. The Evans Blue solution stains the perfused myocardium, while the occluded vascular bed remains uncolored. The animals were sacrificed with an overdose of anesthetic and the heart excised. The heart was sectioned into slices of 3-4 mm thick, the right ventricular wall was removed, and the AAR (pink) was separated from the non-ischemic (blue) area. […]
structure (smiles),measurement,setting,value
"COc1cc2c(cc1OC)-c1c(OC)c(OC)cc3c1C(C2)N(CCOc1ccccc1OC)CC3 (stereo not shown) [Compound 16, N-[2-(2-methoxyphenoxyl)]ethylnorglaucine]",reduction in eNOS protein expression caused by ischemia and reperfusion,[1],significantly reduced
same,Died at ischemia period,"[2]; 0.25 mg/kg, total 3, control 0 of 10",0
same,Died at reperfusion period,"[2]; 0.25 mg/kg, total 3, control 3 of 10",1
same,Mortality (%),"[2]; 0.25 mg/kg, total 3, control 30",33.3%
same,Died at ischemia period,"[2]; 2.5 mg/kg, total 6, control 0 of 10",0
same,Died at reperfusion period,"[2]; 2.5 mg/kg, total 6, control 3 of 10",0
same,Mortality (%),"[2]; 2.5 mg/kg, total 6, control 30",0%
same,animal deaths,[3],no animals died
same,infarct size,[4]; 0.5 mg/kg,47±4 % of the area at risk
same,infarct size,[4]; 1.5 mg/kg,47±2 % of the area at risk
